Where “and” joins values, the source holds several entries; their conditions need not be identical. Equal values may be shown once.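 In this assay, cells in 96-well plates receive the compound at five concentrations for 48 hours. Endpoints are linearly interpolated between the surrounding concentrations. GI50 marks 50% less growth. TGI denotes the concentration required for complete inhibition of growth.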
Legend:
Experiment in all cases: NCI-60 cell line screen, 48 h
[1] = tested on: SNB-19 CNS
[2] = tested on: NCI-H522 lung
[3] = tested on: ACHN renal
[4] = tested on: U251 CNS
[5] = tested on: IGROV1 ovarian
[6] = tested on: HCT-15 colon
[7] = tested on: TK-10 renal
[8] = tested on: NCI-H460 lung
[9] = tested on: OVCAR-3 ovarian
[10] = tested on: SR leukemia

| Structure (SMILES) | GI50 [1] | TGI [1] | GI50 [2] | TGI [2] | GI50 [3] | TGI [3] | GI50 [4] | TGI [4] | GI50 [5] | TGI [5] | GI50 [6] [µM] | TGI [6] | GI50 [7] | TGI [7] | GI50 [8] | TGI [8] | GI50 [9] | TGI [9] | GI50 [10] | TGI [10] |
| --- | --- | --- | --- | --- | --- | --- | --- | --- | --- | --- | --- | --- | --- | --- | --- | --- | --- | --- | --- | --- |
| CN(Cc1cnc2nc(N)nc(N)c2n1)c1c(Cl)cc(C(=O)NC(CCC(=O)O)C(=O)O)cc1Cl (stereo not given) | 0.0395 µM | > 100 µM | 0.0457 µM | > 100 µM | < 0.01 µM | > 100 µM | 0.0423 µM | > 100 µM | < 0.01 µM | > 100 µM | < 0.01 | > 100 µM | 1.88 µM | > 100 µM | < 0.01 µM | > 100 µM | 0.0685 µM | > 100 µM | < 0.01 µM | > 100 µM |
| COc1cc(N)c(Cl)cc1C(=O)N[C@@H]1CCN(CCCOc2ccc(F)cc2)C[C@@H]1OC | > 100 µM | > 100 µM | 61.8 µM | > 100 µM | > 100 µM | > 100 µM | > 100 µM | > 100 µM | > 100 µM | > 100 µM | 23.6 | > 100 µM | > 100 µM | > 100 µM | 66.9 µM | > 100 µM | > 100 µM | > 100 µM | 13.6 µM | 50.4 µM |
| O=C(O)CCN1C(=S)CSC1=S |  | > 100 µM |  | > 100 µM |  | > 100 µM |  | > 100 µM |  | > 100 µM |  | > 100 µM |  | > 100 µM |  | > 100 µM |  | > 100 µM |  | > 100 µM |
| CC(=O)/C(=N\N=C(N)N)c1ccccc1 |  | > 100 µM |  | > 100 µM |  | > 100 µM |  | > 100 µM |  | > 100 µM |  | > 100 µM |  | > 100 µM |  | > 100 µM |  | > 100 µM |  | > 100 µM |
| O=C1C=C(NCCc2ccccc2)c2ccccc2C1=O |  | 9.29 µM |  | 4.41 µM |  | 12.2 µM |  | 16.1 µM |  | 21.3 µM |  | 3.6 µM |  | 27.3 µM |  | 3.18 µM |  | 5.59 µM |  | 43.3 µM |
| CCOC(=N)CC(=O)Nc1ccccc1CC |  | > 100 µM |  | > 100 µM |  | > 100 µM |  | > 100 µM |  | > 100 µM |  | > 100 µM |  | > 100 µM |  | > 100 µM |  | > 100 µM |  | > 100 µM |
| CCOC(=O)C(Cc1cc(OC)c(CC(C(=O)OCC)C(=O)OCC)cc1OC)C(=O)OCC |  | > 100 µM |  | > 100 µM |  | > 100 µM |  | > 100 µM |  | > 100 µM |  | > 100 µM |  | > 100 µM |  | > 100 µM |  | > 100 µM |  | > 100 µM |
| c1ccc(N2CCN(CCN3CCc4c([nH]c5ccccc45)C3c3cccnc3)CC2)cc1 (stereo not given) |  | > 100 µM |  | > 100 µM |  | > 100 µM |  | > 100 µM |  | > 100 µM |  | > 100 µM |  | > 100 µM |  | > 100 µM |  | > 100 µM |  | > 100 µM |
| CN(C)CCN=c1nc2c(c(N)n1-c1ccccc1)c(=S)n(-c1ccccc1)c(=S)n2-c1ccccc1 | 3.86 µM | 16.7 µM | 2.39 µM | 6.82 µM | 2.89 µM | 9.71 µM | 1.4 µM | 3.19 µM | 8.09 µM | 23 µM | 1.17 | 3.73 µM | 2.36 µM | 10.1 µM | 2.33 µM | 6.29 µM | 2.89 µM | 11.6 µM | 1.36 µM | 3.34 µM |
| COC(OC)c1cccnc1C |  | > 100 µM |  | > 100 µM |  | > 100 µM |  | > 100 µM |  | > 100 µM |  | > 100 µM |  | > 100 µM |  | > 100 µM |  | > 100 µM |  | > 100 µM |
| CCS(=O)(=O)c1cccc(-c2cc(C(=O)NC3CCN(C)CC3)c(C)c3[nH]c4ncc(C)cc4c23)c1 | 0.302 µM and 0.25 µM | > 10 µM and 6.67 µM | 0.148 µM and 0.164 µM | 2.27 µM and 1.68 µM | 9.87 µM and 2.64 µM | > 10 µM and 10.6 µM | 0.537 µM and 0.316 µM | 5.16 µM and 2.35 µM | 0.179 µM and 0.111 µM | 1.76 µM and 2.55 µM | 13.6 | > 10 µM and 45.8 µM | 1.71 µM and 1.44 µM | > 8.01 µM and 6.7 µM | 0.201 µM and 0.0843 µM | 4.96 µM and 1.64 µM | 0.336 µM and 0.232 µM | 2.48 µM and 1.41 µM | 0.0682 µM and < 0.0246 µM | 2.14 µM and 1.58 µM |
| CCOC1=C/C(=N\Nc2ccc([N+](=O)[O-])cc2)CCC1 |  | > 100 µM |  | 23.4 µM |  | 34.8 µM |  | 54.1 µM |  | 40.7 µM |  | 57.3 µM |  | > 100 µM |  | > 100 µM |  | > 100 µM |  | > 100 µM |
| COc1ccc(N=c2nc3sc4cc(Cl)ccc4n3c(N)c2C#N)cc1 | 20.7 µM | > 100 µM | 20.6 µM | > 100 µM | 8.66 µM | > 100 µM | 4.38 µM | > 100 µM | 3.48 µM | > 66.1 µM | 5.59 | > 31.1 µM | 4.61 µM | 45.5 µM | 21.1 µM | > 100 µM | 9.66 µM | 44.8 µM | 8.49 µM | > 84.8 µM |
| CCCCC[C@H]1C/C=C2/C(=O)C=C[C@@H]2C/C=C\CCCC(=O)O1 | 0.479 µM | 7.45 µM | 0.0936 µM | 0.236 µM | 0.0987 µM | 0.202 µM | 0.116 µM | 0.305 µM | 0.209 µM | 1.43 µM | 0.0937 | 0.26 µM | 0.171 µM | 0.41 µM | 0.156 µM | 5.38 µM | 0.182 µM | 0.664 µM | 0.124 µM | 50 µM |
| CCN(CC)c1ccc(/C=N/N=C(N)N)cc1 | 3.57 µM | 23.8 µM | 1.91 µM | 4.8 µM | 12.8 µM | 64.8 µM | 5.49 µM | 23.4 µM | 8.11 µM | 55.1 µM | 4.76 | 55.8 µM | 7.87 µM | 28.4 µM | 3.57 µM | 15.1 µM | 2.21 µM | 4.91 µM | 2.03 µM | 15 µM |
| CCNC(=O)COc1ccc(Cl)c(C)c1 |  | > 100 µM |  | > 100 µM |  | > 100 µM |  | > 100 µM |  | > 100 µM |  | > 100 µM |  | > 100 µM |  | > 100 µM |  | > 100 µM |  | > 100 µM |
| CCOc1ccc2cc(-c3nn(CC4CCN(C)CC4)c4ncnc(N)c34)ccc2c1 | 15.6 µM | 45.9 µM | 16.6 µM | 33.5 µM | 14.7 µM | 33 µM | 12.9 µM | 27.5 µM | 11.2 µM | 31.4 µM | 12.3 | 30.9 µM | 14.4 µM | 34.3 µM | 16.7 µM | 33.7 µM | 16.2 µM | 39.7 µM | 3.63 µM | 18 µM |
| O=C(OCC1=CC(=O)c2ccccc2C1=O)c1ccccc1 | 10.3 µM | 22.4 µM | 15 µM | 28.6 µM | 15 µM | 28.4 µM | 14.6 µM | 28.5 µM | 12.5 µM | 25.6 µM | 10.6 | 29.5 µM | 15.9 µM | 29.6 µM | 1.99 µM | 6.19 µM | 3.47 µM | 18.7 µM | 3.51 µM | 30.8 µM |
| NC(=S)c1cccc(C2Nc3ccccc3O2)c1 (stereo not given) |  | > 100 µM |  | > 100 µM |  | > 100 µM |  | > 100 µM |  | > 100 µM |  | > 100 µM |  | > 100 µM |  | > 100 µM |  | > 100 µM |  | > 100 µM |
| S=C(Nc1ccc(-c2nc3ccccc3s2)cc1)Nc1ccc(-c2nc3ccccc3s2)cc1 | 43 µM | > 100 µM | 11.2 µM | 26.2 µM | 17.1 µM | 41 µM | 17.2 µM | 41.6 µM | 13 µM | 41.7 µM | 15.4 | 35.7 µM | 18.3 µM | 63.2 µM | 21 µM | 63.9 µM | 24.5 µM | > 100 µM | 21 µM | 49.5 µM |
| CN(CCOc1ccc(NS(C)(=O)=O)cc1)CCc1ccc(NS(C)(=O)=O)cc1 | > 100 µM | > 100 µM | > 100 µM | > 100 µM | > 100 µM | > 100 µM | > 100 µM | > 100 µM | > 100 µM | > 100 µM | > 100 | > 100 µM | > 100 µM | > 100 µM | > 100 µM | > 100 µM | > 100 µM | > 100 µM | > 100 µM | > 100 µM |
| COc1c(OC2OC(C)C(O)C(O)C2O)c(OC)c2oc(-c3ccc(O)cc3)cc(=O)c2c1O (stereo not given) | 45.2 µM | > 100 µM | 24.2 µM | 64.5 µM | 30.7 µM | > 100 µM | 30.2 µM | > 100 µM | 18.1 µM | 92.2 µM | 40.3 | > 100 µM | 72.2 µM | > 100 µM | 27.7 µM | 81.4 µM | 21.5 µM | 64.4 µM | 19.7 µM | 93.5 µM |
| N#C/C(=C/C=C/c1cccc(Cl)c1)S(=O)c1ccccc1 (stereo not given) | 0.684 µM | 2.52 µM | 0.251 µM | 0.804 µM | 0.34 µM | 1.29 µM | 0.361 µM | 1.31 µM | 0.399 µM | 1.71 µM | 0.197 | 0.56 µM | 0.359 µM | 1.32 µM | 0.474 µM | 2.51 µM | 0.253 µM | 0.782 µM | 0.227 µM | 2.67 µM |
